One may read the solubility (kinetic) as solubility judged after dilution from a stock solution rather than from solid.

Converted amounts (≈) assume the structure as drawn.

The conditions of the data set: buffer; pH 7.4; 200.0 µM.
The compound `Cc1cc(NC(=O)Cc2ccccc2[N+](=O)[O-])no1` had a solubility (kinetic) of 16.6 µg/mL (≈ 63.5 µM). To `CC(C)Nc1nc(Cl)nc(NC2CCCCC2)n1` belongs 2.7 µg/mL (≈ 10 µM); to `CC(=O)c1c(C)[nH]c(C(=O)OCc2cc(-c3ccco3)on2)c1C`, 2.5 µg/mL (≈ 7.61 µM); to `O=C(CN1CCOCC1)Nc1ccc2c(c1)OC(F)(F)O2`, 41.2 µg/mL (≈ 137 µM). To `CC(=O)C1=C(O)C(=O)N(c2ccccn2)C1c1cccc(F)c1` (stereo not drawn) belongs over 46.8 µg/mL; to `N#CC1=C(N)Oc2cc(N)ccc2C1c1ccc(F)cc1F` (stereo not drawn), over 44.9 µg/mL.

For the compound `CC(C)(C)CC(=O)NCCc1csc(-c2ccccc2)n1`, the solubility (kinetic) was over 45.4 µg/mL. To `c1ccc(-c2ccc(-c3ccncn3)cc2)cc1` belongs under 0.2 µg/mL; to `Cc1cccc(C)c1NC(=O)c1cnn(-c2ccccc2)c1C`, over 45.8 µg/mL; to `Cc1noc(C)c1COc1ccc(C(=O)Nc2ccccn2)cc1`, 7.6 µg/mL (≈ 23.5 µM). Under `Cc1cc2oc(=O)cc(CN3CCOCC3)c2c(C)c1Cl` stands 0.9 µg/mL (≈ 2.92 µM). The compound `Cc1ccc(Cn2ccccc2=N)cc1.Cl` yielded a solubility (kinetic) of over 35.2 µg/mL. Under `COc1cccc(CC(=O)NCCCSc2ccccc2)c1` stands 47.3 µg/mL (≈ 150 µM). To `Cn1c(N)c(C(=O)c2ccc(Cl)c(S(=O)(=O)N3CCCCCC3)c2)c(=O)n(C)c1=O` belongs over 68.2 µg/mL.

In the case of `CC(C)(C)NC(=O)NC(=O)CN1CCCCCCC1`, the kinetic solubility is 21.2 µg/mL (≈ 78.7 µM).

Compound `O=C1Nc2cc(Br)ccc2C1(O)c1ccccc1O` (stereo not drawn) registered a solubility (kinetic) of over 48 µg/mL. To `O=C(O)c1ccc(Nc2ccc(Cl)c(Cl)c2)c([N+](=O)[O-])c1` belongs over 49.1 µg/mL; to `COP(=O)(OC)C(Nc1ccc(Cl)cc1)c1ccccc1` (stereo not drawn), over 48.9 µg/mL. Under `CC(C)CCNC(=O)C(=O)Nc1ccccc1` stands 2.6 µg/mL (≈ 11.1 µM); under `O=[N+]([O-])c1c(NCCCO)cc(Sc2ccc(Cl)cc2)c2nonc12`, 18.7 µg/mL (≈ 49.1 µM).

In turn, `COc1ccc2nc(Nc3ccccc3OC)sc2c1` had a kinetic solubility of 3.8 µg/mL (≈ 13.3 µM). In turn, `N#CCNC1CC(=O)N(c2ccccc2)C1=O` (stereo not drawn) registered a solubility (kinetic) of over 34.4 µg/mL. To `CC(C)C(NC(=O)c1ccc(F)cc1)C(=O)N1CCC1` (stereo not drawn) belongs over 41.7 µg/mL. To `CC1CCCCC12NC(=O)N(CC(=O)N1CCc3ccccc31)C2=O` (stereo not drawn) belongs 3.7 µg/mL (≈ 10.8 µM). Consider `CN(Cc1nc2ccccc2s1)C(=O)c1ccc(F)cc1`, for which the kinetic solubility was over 45.1 µg/mL. Under `CC1CCCCN1S(=O)(=O)c1csc(C(N)=O)c1` (stereo not drawn) stands over 43.3 µg/mL. `COc1cc(N2C(=O)CC(=O)NC2=O)cc(OC)c1OC` came in with a kinetic solubility of 40.7 µg/mL (≈ 138 µM). In turn, `Cc1ccc(Cl)c(NC(=O)CN2CCN(C=O)CC2)c1` came in with a kinetic solubility of 36.6 µg/mL (≈ 124 µM). For `O=[N+]([O-])c1ccccc1/C=C/CN1CCSCC1`, the kinetic solubility was 29.2 µg/mL (≈ 110 µM). On to `Cc1ccc(NC(=O)CN2C(=O)NC(C)(c3ccc4c(c3)OCO4)C2=O)cc1` (stereo not drawn), for which the kinetic solubility is over 57.2 µg/mL. Under `CCCCN1C(=O)C(C)=C(C)C1OCCc1ccc(OC)c(OC)c1` (stereo not drawn) stands 50.5 µg/mL (≈ 145 µM). The compound `CCOC(=O)CN1C(=O)NC2(CCCc3ccccc32)C1=O` (stereo not drawn) displayed a kinetic solubility of over 45.3 µg/mL. `COc1cccc(CN2CCN(c3ccc(F)cc3)C2=O)c1`: the kinetic solubility came out at 29.9 µg/mL (≈ 99.6 µM). To `O=C(/C=C/c1ccc(Cl)c(Cl)c1)Nc1cccnc1` belongs 0.6 µg/mL (≈ 2.05 µM). With `CN(C)c1ccc(NC(=O)c2cccc([N+](=O)[O-])c2)c2ccccc12`, the solubility (kinetic) was determined as 15.1 µg/mL (≈ 45 µM). To `CC1CCN(C(=O)CSCC(=O)O)CC1` belongs over 34.7 µg/mL.

For the compound `CC(=O)N1CCC(N(C(=O)Nc2ccc(Cl)cc2)C(C)C)CC1`, the solubility (kinetic) is over 50.7 µg/mL.

With `O=C(O)CCCCCNS(=O)(=O)c1ccc2c(c1)OCCO2`, the kinetic solubility was over 49.4 µg/mL.

The compound `OCC1(CCOc2ccccc2)CCN(Cc2ccncc2)CC1` showed a solubility (kinetic) of 39 µg/mL (≈ 119 µM). Under `CCOC(=O)c1csc(NC(=O)CN2CCOCC2)n1` stands over 44.9 µg/mL; under `CCCC/C(O)=C1\C(=O)CCCC1=NCCc1c(C)[nH]c2ccccc12`, 14.3 µg/mL (≈ 40.6 µM).

In the case of `O=C(Nc1ccccc1C(=O)N1CCCCCC1)c1ccc(F)cc1`, the kinetic solubility is over 51.1 µg/mL. Under `CCCCOc1ccc(CON(C(C)=O)C(C)=O)cc1Cl` stands 2.6 µg/mL (≈ 8.29 µM).

The compound `COc1cccc(C(=O)O/N=C(\N)c2ccccn2)c1OC` registered a solubility (kinetic) of over 45.2 µg/mL. To `O=C(Cc1ccsc1)Nc1ccccc1F` belongs over 35.3 µg/mL; to `O=C(COc1cccnc1[N+](=O)[O-])Nc1c(Cl)cccc1Cl`, 23.2 µg/mL (≈ 67.8 µM).

Compound `Cc1cccc(N2CCN(C(=O)NCc3ccc(F)cc3)CC2)c1C` came in with a solubility (kinetic) of 3.2 µg/mL (≈ 9.37 µM). To `O=C(O)CCn1c(=S)n(CCC(=O)O)c2ccccc21` belongs over 44.1 µg/mL. Under `Fc1ccc(NC(=S)Nc2cccnc2)c(Cl)c1` stands over 42.3 µg/mL; under `O=C(CSc1ncnc2sccc12)Nc1ccccc1F`, 5.9 µg/mL (≈ 18.5 µM).

The compound `COc1ccc(CN2CCOCCOCCOCC2)cc1` registered a solubility (kinetic) of 39.1 µg/mL (≈ 132 µM). Under `NS(=O)(=O)c1ccc(NC(=O)CCC(=O)N2CCOCC2)cc1` stands over 51.2 µg/mL.

The compound `COc1ccccc1NC(=O)C(C)N(C)CC(=O)Nc1cccc2ccccc12.Cl` (stereo not drawn) had a solubility (kinetic) of over 64.2 µg/mL. Under `CC(C)C(=O)O/N=C(\N)c1ccc(Oc2ccc(Cl)cc2)c([N+](=O)[O-])c1` stands 3.5 µg/mL (≈ 9.26 µM). To `O=S(=O)(NC1C2CC3CC(C2)CC1C3)c1ccccc1` (stereo not drawn) belongs 23.4 µg/mL (≈ 80.3 µM); to `COc1ccc(CC(=O)OC(C)C(=O)Nc2ccc(S(N)(=O)=O)cc2)cc1` (stereo not drawn), over 58.9 µg/mL. To `CC(C(=O)Nc1cc(Cl)cc(Cl)c1)N1CCCC1` (stereo not drawn) belongs over 43.1 µg/mL; to `Cc1ccccc1CSc1[nH]c(=O)ncc1C`, over 36.9 µg/mL. The compound `COc1ccc(CCNC2CCC(c3ccccc3)CC2)cc1` (stereo not drawn) gave a kinetic solubility of over 46.4 µg/mL.

For the compound `Cc1nc(N2CCN(C)CC2)c2cc(-c3ccccc3)sc2n1`, the kinetic solubility came to 1.8 µg/mL (≈ 5.55 µM). Consider `O=C(COC(=O)CNC(=O)c1ccc(Cl)cc1Cl)NC1CC1`, for which the solubility (kinetic) was over 51.8 µg/mL. To `O=C1NC(=Nc2cccnc2)S/C1=C/c1ccc(F)cc1` belongs 0.7 µg/mL (≈ 2.34 µM); to `O=[N+]([O-])/C=C1\CCCCCN1`, over 23.4 µg/mL. Under `Cc1cccc(C(=O)N[C@@H](C)C(=O)N2CCN(c3ncccn3)CC2)c1` stands over 53 µg/mL. `COc1ccc(N2CCOCC2)c(NC(=O)c2cc3ccccc3o2)c1` showed a solubility (kinetic) of under 0.4 µg/mL. As for `COc1ccccc1CNC(=O)COC(=O)c1nccnc1N`, the solubility (kinetic) was determined as 39.7 µg/mL (≈ 126 µM). `O=C1CN(C(=S)NC(=O)c2ccccc2[N+](=O)[O-])CCN1` showed a solubility (kinetic) of over 46.2 µg/mL. Under `Cc1cc(=O)[nH]c(NCc2ccc(Cl)cc2)n1` stands over 37.5 µg/mL. To `COc1ccc(NC(=O)Nc2ccccc2SC)cc1OC` belongs 0.6 µg/mL (≈ 1.88 µM); to `O=C(NC1CCCCC1)c1cc(-c2cccc(Cl)c2)on1`, 0.7 µg/mL (≈ 2.3 µM); to `COc1cc(OC)c(C(=O)Nc2ccc3ccccc3c2)cc1OC`, under 0.7 µg/mL.

`COc1cccc(OCC(=O)Nc2ccncc2)c1` displayed a solubility (kinetic) of over 38.7 µg/mL.

Compound `COc1ccc(-c2nc3ncccc3o2)cc1NC(=O)c1cccs1` yielded a solubility (kinetic) of 0.3 µg/mL (≈ 0.854 µM). Under `Cc1cc(Cl)c(OCCOCCN2CCNCC2)c(Cl)c1.O=C(O)C(=O)O` stands 62.5 µg/mL; under `Cc1nn(C)c(C)c1NS(=O)(=O)c1ccccc1Cl`, over 45 µg/mL. To `CC(C)(CCl)C(=O)Nc1ccnc(-c2ccncc2)n1` belongs 6 µg/mL (≈ 20.6 µM). For the compound `CN(C(=O)c1ccco1)c1nc(-c2ccc(F)cc2)cs1`, the kinetic solubility was under 0.3 µg/mL. To `COc1ccc(NC(=O)Nc2c[nH]c(=O)[nH]c2=O)cc1OC` belongs 44.8 µg/mL (≈ 146 µM); to `COc1ccc(NC(=O)c2ccco2)cc1NC(=O)c1ccccc1`, 4.9 µg/mL (≈ 14.6 µM); to `Cl.Fc1cccc(C2NCc3ccccc3-n3cccc32)c1` (stereo not drawn), 30.6 µg/mL.

On to `COc1ccccc1C(=O)NCCC(=O)NCC1CCCO1` (stereo not drawn), for which the solubility (kinetic) is over 46 µg/mL. Under `O=S(=O)(c1ccc(Cl)cc1)n1cnc2ccccc21` stands over 43.9 µg/mL. Under `COc1cccc2[nH]c(C(=O)NCC3CCCO3)cc12` (stereo not drawn) stands over 41.1 µg/mL. The compound `CCOC(=O)C1(C)NC(c2ccco2)C2C(=O)N(C)C(=O)C21` (stereo not drawn) showed a kinetic solubility of over 45.9 µg/mL. Under `O=C(NN1CCOCC1)c1ccc(Cl)c([N+](=O)[O-])c1` stands over 42.9 µg/mL; under `COc1ccccc1NC(=O)CN1CCCCCC1`, 24.3 µg/mL (≈ 92.6 µM); under `CCOCCCNc1ccc(N2C(=O)CCCC2=O)cc1[N+](=O)[O-]`, over 50.3 µg/mL. To `COc1ccc(N2CC2c2ccncc2)cc1` (stereo not drawn) belongs over 33.9 µg/mL; to `CCN(C(=O)COC(=O)/C=C/c1ccc(F)cc1)C1CCCCC1`, 42.8 µg/mL (≈ 128 µM). `CC(C)OC(=O)/C(=C\c1cccnc1)NC(=O)c1ccccc1` returned a solubility (kinetic) of over 46.6 µg/mL. Under `O=C(O/N=C(/c1ccccc1)c1ccncc1)c1ccccc1[N+](=O)[O-]` stands 8.3 µg/mL (≈ 23.9 µM); under `Cc1cc(NS(=O)(=O)c2ccc(NC(=O)c3ccc(F)cc3)cc2)nc(C)n1`, over 60.1 µg/mL. To `CC1CN(C(=O)/C(=C/c2ccco2)NC(=O)c2ccccc2)CC(C)O1` (stereo not drawn) belongs over 53.2 µg/mL; to `Cc1ccc2oc(=O)c(/C=C(\O)c3ccccc3)nc2c1`, 36.8 µg/mL (≈ 132 µM); to `O=C(Cn1c(C(=O)OCCO)cc2ccccc21)c1ccccc1`, 6.8 µg/mL (≈ 21 µM). Under `Cc1ccc(C(=O)C(=O)c2ccc(C)c(N)c2)cc1N` stands 35 µg/mL (≈ 130 µM). For `O=C(NCC(O)c1ccc2ccccc2c1)c1c(F)cccc1F` (stereo not drawn), the kinetic solubility was 41.9 µg/mL (≈ 128 µM). Under `O=C(Nc1ccccc1N1CCOCC1)c1ccncc1` stands over 42.5 µg/mL; under `CCc1ccc(N2CN=c3s/c(=C\c4ccccc4)c(=O)n3C2)cc1`, 8.2 µg/mL (≈ 23.5 µM). Consider `C=C(C)C(=O)Nc1cccnc1Oc1ccc(F)cc1`, for which the solubility (kinetic) is over 40.8 µg/mL. To `CC(=O)Nc1nc(-c2ccccc2)cc(-c2ccco2)c1C#N` belongs 2 µg/mL (≈ 6.59 µM); to `Cn1c(=O)c2cnc(-c3ccc(C(F)(F)F)cc3)nc2n(C)c1=O`, under 0.2 µg/mL. To `COC(=O)C1=C(C(=O)OC)SC(=C2C(=S)C(C)(C)N(C(=O)C3CC3)c3ccccc32)S1` belongs 11.2 µg/mL (≈ 23.5 µM).

The values are drawn from PubChem BioAssay AID1996.
